# From patent US20160287602A1, “METHODS FOR PROMOTING MOTOR NEURON SURVIVAL” (PRESIDENT AND FELLOWS OF HARVARD COLLEGE, priority 2013, published 2016)
# “Also recorded” adds a separate entry of the source.
# Experiments:
# [1] = test system: FACS purified Hb9::GFP MNs; test: MN survival after trophic factor withdrawal, FACS purified MN culture; assay type: cell-based, mouse; conditions: FACS purified MN cultures, trophic factors withdrawn, FIG. 1C
# Excerpt: ESC-derived MN culture achieves ˜30%-50% MN differentiation efficiency and is therefore highly heterogeneous. To examine whether AKIs specifically act in a cell-autonomous or non-cell-autonomous manner, we established a highly enriched MN culture through FACS purification based on Hb9::GFP reporter expression. […] Next, we asked whether AKIs exert their survival promoting effect only cell-autonomously or whether they also function non-cell-autonomously to rescue MN death. To address this question we produced astrocyte conditioned medium (ACM) by incubating primary murine astrocytes with AKIs (VX-680 and ZM447439). The ACM was then dialyzed using a dialyzer with pore size appropriate for eliminating residual AKIs.
# iPSC-derived MN lines [2] = test: Synapse formation of iPSC-derived MNs; assay type: cell-based, human; conditions: all iPSC-derived MN lines, absence of trophic factor
# Excerpt: (§1) We produced MNs from human iPSCs lines including a healthy control, two ALS patients expressing confirmed mutations in SOD1 (Boulting et al., 2011), two with mutations in TDP-43 and one in C90RF72. We treated these cultures with AraC to minimize the number of proliferating progenitors. […] We also examined the effect of SOD 1^G93A astrocytes co-culture on iPSC derived MNs. We found no toxic effect on survival in any of the patient iPSC derived MNs, but we did observe decreased MN survival in the control iPSC derived MNs. […] We also looked at the effect of AKIs on morphology and synapse formation. […] In addition, by immunoblot we observed that ZM447439 enhanced synaptic protein, synaptophysin, expression in both the presence and absence of trophic factors.
# Hb9::GFP MNs [3] = test: MN morphology analysis of surviving MNs; assay type: cell-based, mouse; conditions: absence of trophic factors, extended time point
# Excerpt: (§2) To examine whether MNs kept alive by AKIs maintain morphological integrity we carried out a series of analyses on surviving MNs in the absence of trophic factors. […] We also used an automated imager to analyze the number of synapses per MN by counting co-localized regions positive for the presynaptic marker synapsin and the postsynaptic marker PSD-95.
# SOD1^G93A/Hb9::GFP MNs [4] = test: MN morphology analysis of surviving MNs; assay type: cell-based, mouse; conditions: absence of trophic factors, extended time point
# Excerpt: as §2
# [5] = test system: phosphorylated BAD (pBAD); test: Phosphorylated BAD immunostaining in surviving MNs; assay type: cell-based, mouse; conditions: absence of TFs
# [6] = test system: human iPSC derived MNs (healthy control, SOD1, TDP-43, C90RF72); test: Human iPSC derived MN survival; assay type: cell-based
# Excerpt: as §1
# iPSC-derived MN lines [7] = test: Morphology of iPSC-derived MNs; assay type: cell-based, human; conditions: all iPSC-derived MN lines, absence of trophic factor
# Excerpt: as §1
# [8] = test system: synaptophysin in SOD1^G93A/Hb9::GFP MN cultures; test: Synaptophysin immunoblotting; assay type: cell-based, mouse
# synaptophysin = test: Synaptophysin immunoblot, iPSC-derived MNs; assay type: cell-based, human; conditions: both the presence and absence of trophic factors
# Excerpt: as §1
# MNs = test: Lentivirus knockdown of Prkarlb, MN survival; assay type: cell-based, mouse
# Excerpt: Next we sought to investigate the mechanism by which AKIs promote MN survival. To evaluate this comprehensively we performed microarray analysis to compare gene expression between MNs cultured with: 1) Trophic factors (+TF), 2) No trophic factors (−TF), 3) VX-680 in the absence of TFs, and 4) ZM447439 in the absence of TFs. […] Gene expression was compared between +TF and −TF, VX-680 and −TF, and ZM447439 and −TF. With a cut off of more than 3 fold difference, there were 85 genes overlapping in all three comparison in Hb9::GFP MNs and 57 in SOD1^G93A/Hb9::GFP MNs. We found 39 overlapping genes when we compared both types of MNs (FIG. 5B). […] We analyzed the shortlist of 39 genes by using DAVID functional annotation bioinformatics microarray analysis software to find the potential pathways involved in MN survival. […] PKA is known to phosphorylate BAD protein, leading to increased cell survival (Jose M. LIZCANO et al., 2000; Julian Downward et al., Nature cell biology 1999; Komaki S et al., Neurosci Lett 2012). […] We further investigated this pathway by lentivirus knockdown of Prkarlb.
# [9] = test system: wild-type (Hb9::GFP) mouse ESC derived MNs; test: MN survival after trophic factor withdrawal, mixed culture; assay type: cell-based
# Excerpt: In the present study, we have screened highly specific small molecule kinase inhibitors to identify those which could promote MN survival. For the screen, we generated MNs from wild-type (Hb9::GFP) and SOD1^G93A (SOD1^G93A/Hb9::GFP) mouse ESCs using published protocols (Di Giorgio et al., 2007). We withdrew trophic factors as a standard method to induce MN death. Cell plating density as well as timing for initiation and duration of trophic factor withdrawal were used exactly as published to achieve ˜80% MN death in 3 days (FIG. 1A) (Yang et al., 2013). […] We continued to work with this compound class as it reproducibly promoted survival of both MNs types and the effect was robust. We further reasoned that since this compound class promoted survival of both MN types, the probability of its working in other contexts such as on human MNs and in the ALS mouse model was maximum. […]
# Trophic factors were removed and ZM447439 was added to the cultures as previously and MN survival was analyzed on day 7, 14 & 21.
# FACS purified MNs = test: Area of MN cell bodies in astrocyte co-culture; assay type: cell-based, mouse
# Description: We sought to examine whether AKIs decrease the toxic effect of SOD1^G93A mutant astrocytes. We first cultured primary astrocytes from wild type (WT) and SOD1^G93A mice and plated FACS purified MNs on top. We observed significant cell death when MNs were cultured on mutated astrocytes compared to WT astrocytes. ZM447439 improved both Hb9::GFP and SOD1^G93A/Hb9::GFP MN survival.
# iPSCs derived MNs = test: iPSC derived MNs co-cultured with wild type or SOD1^G93A astrocytes; assay type: cell-based, human; conditions: iPSCs derived MNs cultured on wild type or SOD1^G93A astrocytes
# Excerpt: as §1
# Hb9::GFP MNs [10] = test: Number of synapses per MN (synapsin/PSD-95 co-localization, automated imager); assay type: cell-based, mouse
# Excerpt: as §2
# SOD1^G93A/Hb9::GFP MNs [11] = test: as above; assay type: cell-based, mouse
# Excerpt: as §2
smiles,measurement,setting,value
"COc1cc2c(Nc3ccc(NC(=O)c4ccccc4)cc3)ncnc2cc1OCCCN1CCOCC1 [ZM447439, N-[4-[[6-Methoxy-7-[3-(4-morpholinyl)propoxy]-4-quinazolinyl]amino]phenyl]benzamide]",MN survival,[1],rescued MN survival in a dose dependent fashion
same,synapse formation,iPSC-derived MN lines [2],preserved both
same,"MN morphology (total neurite length, maximum neurite length, number of extremities and number of nodes per MN)",Hb9::GFP MNs [3],preserved all of these features
same,"MN morphology (total neurite length, maximum neurite length, number of extremities and number of nodes per MN)",SOD1^G93A/Hb9::GFP MNs [4],preserved all of these features
same,levels of phosphorylated BAD (pBAD),[5],increased levels
same,MN survival,"[6]; all human iPSC derived MN cultures, AraC treated",substantially increase MN survival
same,"MN survival, comparison of VX-680 and ZM447439",[6]; human iPSC derived MN cultures,more effective and potent in rescuing human MN death
same,morphology,iPSC-derived MN lines [7],preserved both
same,expression of synaptic protein synaptophysin,[8],increased expression
same,synaptic protein synaptophysin expression,synaptophysin,enhanced
same,MN survival on knocking down Prkarlb in the presence of the compound,MNs,effectively decreased MN survival
same,"survival effect in dose dependent assay, comparison among AKIs","[9]; mixed MN culture, FIG. 1B",most effective and potent in promoting MN survival; also recorded: most effective and potent of all AKIs assayed
same,survival of MNs (number of surviving MNs),"[9]; trophic factor withdrawal, 3 days, wild-type Hb9::GFP MNs",consistently increased the survival of MNs; also recorded: most potent and robust at increasing survival
same,long term MN survival,"[9]; trophic factors removed, day 7, 14 & 21, Hb9::GFP MNs",increased survival
same,area of MN cell bodies,FACS purified MNs,increased
same,MN survival in astrocyte co-culture,iPSCs derived MNs,improved survival
same,number of synapses per MN,"Hb9::GFP MNs [10]; absence of trophic factors, Hb9::GFP MNs",preserved the number of synapses
same,number of synapses per MN,Hb9::GFP MNs [10]; neurotrophin containing medium,increased the number of synapses per MN
same,number of synapses per MN,"SOD1^G93A/Hb9::GFP MNs [11]; absence of trophic factors, SOD1^G93A/Hb9::GFP MNs",preserved the number of synapses
same,number of synapses per MN,SOD1^G93A/Hb9::GFP MNs [11]; neurotrophin containing medium,increased the number of synapses per MN
